Drawing on ChEMBL document CHEMBL1132669, “New generation dopaminergic agents. 7. Heterocyclic bioisosteres that exploit the 3-OH-phenoxyethylamine D2 template” (Bioorg Med Chem Lett, 1999), this text covers Ki, ED50 and Ratio for 15 molecules.

pKi: −log10 of the molar value. The source made the active and inactive calls. No cut-off for these calls is given here.

Sequence of D(3) dopamine receptor (P35462 whole entry): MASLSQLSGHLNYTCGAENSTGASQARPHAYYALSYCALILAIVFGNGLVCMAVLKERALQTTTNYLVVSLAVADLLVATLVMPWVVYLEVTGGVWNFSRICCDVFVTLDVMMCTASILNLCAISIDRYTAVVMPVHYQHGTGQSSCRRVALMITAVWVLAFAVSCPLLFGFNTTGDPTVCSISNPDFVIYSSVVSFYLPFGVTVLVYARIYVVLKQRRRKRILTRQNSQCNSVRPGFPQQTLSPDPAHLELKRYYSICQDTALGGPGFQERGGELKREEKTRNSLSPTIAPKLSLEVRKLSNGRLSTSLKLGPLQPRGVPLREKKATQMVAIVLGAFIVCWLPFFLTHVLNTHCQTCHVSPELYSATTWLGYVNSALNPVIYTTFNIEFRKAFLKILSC
Sequence of D(2) dopamine receptor (Rattus norvegicus) (P61169 whole entry): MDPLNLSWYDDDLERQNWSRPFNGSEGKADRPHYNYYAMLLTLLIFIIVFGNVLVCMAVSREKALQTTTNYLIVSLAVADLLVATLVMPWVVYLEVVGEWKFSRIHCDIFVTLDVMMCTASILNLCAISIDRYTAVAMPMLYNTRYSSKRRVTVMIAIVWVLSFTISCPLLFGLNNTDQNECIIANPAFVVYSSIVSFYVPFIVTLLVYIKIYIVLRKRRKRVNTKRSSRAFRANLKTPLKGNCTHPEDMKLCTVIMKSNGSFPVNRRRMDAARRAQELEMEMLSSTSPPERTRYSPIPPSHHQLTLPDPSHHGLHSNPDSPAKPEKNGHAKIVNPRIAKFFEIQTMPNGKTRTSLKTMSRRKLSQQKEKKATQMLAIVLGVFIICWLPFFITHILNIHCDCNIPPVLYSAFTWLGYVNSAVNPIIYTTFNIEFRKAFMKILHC
Sequence of D(2) dopamine receptor (Homo sapiens, UniProt P14416) (P14416 whole entry): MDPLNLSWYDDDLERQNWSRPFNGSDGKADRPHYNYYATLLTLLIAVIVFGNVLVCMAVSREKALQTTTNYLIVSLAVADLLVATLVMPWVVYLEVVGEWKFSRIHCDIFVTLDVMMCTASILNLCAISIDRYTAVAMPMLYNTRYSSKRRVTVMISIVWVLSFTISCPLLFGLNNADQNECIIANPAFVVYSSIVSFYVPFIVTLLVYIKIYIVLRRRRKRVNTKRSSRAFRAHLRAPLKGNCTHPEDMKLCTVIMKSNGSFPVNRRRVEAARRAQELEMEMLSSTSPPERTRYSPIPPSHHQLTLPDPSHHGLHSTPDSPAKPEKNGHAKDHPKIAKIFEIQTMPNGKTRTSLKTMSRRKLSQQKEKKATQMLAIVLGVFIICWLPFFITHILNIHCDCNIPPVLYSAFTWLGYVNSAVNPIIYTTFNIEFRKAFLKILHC

The first assay deals with T1, D(2) dopamine receptor (Rattus norvegicus, UniProt P61169). The experiment in a line: Inhibition of [3H]spiperone binding to rat striatal membrane Dopamine receptor D2 low affinity without GTP and sodium.
T1 sequence (P61169 whole entry): as the sequence (P61169 whole entry) above
Settings: not given
Usually pKi stands for −log10 of the Ki, conventionally taken in molar units. `Sc1nc2c(OCCNCc3ccccc3)cc(Cl)cc2[nH]1`: the pKi was 8.35.

With `O=c1[nH]c2cc(Cl)cc(OCCNCc3ccccc3)c2[nH]1`, the pKi is 8.57.

As to `FC(F)(F)c1nc2c(OCCNCc3ccccc3)cc(Cl)cc2[nH]1`, the pKi is 7.94. This pKi lies 0.63 log units lower than the previous one.

In turn, `c1ccc(CNCCOc2cccc3nc[nH]c23)cc1` had a pKi of 6.89.

As for `c1ccc(CNCCOc2cccc3[nH]ncc23)cc1`, the pKi is 7.44.

In turn, `FC(F)(F)c1nc2c(OCCNCc3ccccc3)cccc2[nH]1` gave a pKi of 8.72.

For the molecule `O=c1[nH]c2cccc(OCCNCc3ccccc3)c2[nH]1`, the pKi was 8.33.

As for `S=c1[nH]c2cccc(OCCNCc3ccccc3)c2[nH]1`, the pKi is 8.59.

For `Cc1nc2c(OCCNCc3ccccc3)cccc2[nH]1`, the pKi is 7.58.

The next assay addresses D(2) dopamine receptor (Homo sapiens, UniProt P14416). The experiment in a line: Inhibition of [3H]spiperone binding to human Dopamine receptor D2 in CHO cell membranes.
Settings: not given
The molecule `Sc1nc2c(OCCNCc3ccccc3)cc(Cl)cc2[nH]1` had a pKi of 8.19.

`O=c1[nH]c2cc(Cl)cc(OCCNCc3ccccc3)c2[nH]1` had a pKi of 8.59.

On to `FC(F)(F)c1nc2c(OCCNCc3ccccc3)cc(Cl)cc2[nH]1`, for which the pKi is 7.49. This pKi is 1.10 log units lower than that of the molecule before.

`c1ccc(CNCCOc2cccc3nc[nH]c23)cc1` gave a pKi of 7.07.

`c1ccc(CNCCOc2cccc3[nH]ncc23)cc1` gave a pKi of 7.10.

Consider `FC(F)(F)c1nc2c(OCCNCc3ccccc3)cccc2[nH]1`, for which the pKi is 8.76.

For `c1ccc(CNCCOc2cccc3[nH]ccc23)cc1`, the pKi is 7.09.

For the molecule `O=C1Cc2c(cccc2OCCNCc2ccccc2)N1`, the pKi was 8.37.

As for `S=c1[nH]c2cccc(OCCNCc3ccccc3)c2[nH]1`, the pKi was 8.52.

For the molecule `Cc1nc2c(OCCNCc3ccccc3)cccc2[nH]1`, the negative-log Ki (pKi) was 7.82.

For another assay, the system named is Mus musculus. The experiment in a line: Inhibitory activity against Sterotypy in mice administered subcutaneously at 3 mg/kg; NS is not significant. In kind it is functional, organism-based. Further details: dose 3 mg/kg.
Settings: not given
A word on the ED50: it is the dose at which the effect has come halfway, by size or by number of responders. With `FC(F)(F)c1nc2c(OCCNCc3ccccc3)cc(Cl)cc2[nH]1`, the ED50 result was “inactive”.

Another assay has as its system Mus musculus. Put plainly: Inhibitory activity against Sterotypy in mice administered subcutaneously. Particulars: sc. The class given is functional.
The molecule `FC(F)(F)c1nc2c(OCCNCc3ccccc3)cccc2[nH]1` came in with an ED50 of 0.33 mg/kg.

In a further assay the test system is Mus musculus. Put plainly: In vivo inhibitory activity against spontaneous locomotory activity in mice administered subcutaneously. Particulars: sc. In kind it is functional.
Take `FC(F)(F)c1nc2c(OCCNCc3ccccc3)cc(Cl)cc2[nH]1`: the 50% effect level (ED50) was put at a dose of 0.35 mg/kg.

For the molecule `FC(F)(F)c1nc2c(OCCNCc3ccccc3)cccc2[nH]1`, the ED50 turned out to be 0.007 mg/kg.

A further assay concerns Mus musculus. Put plainly: Inhibitory activity against apomorphine-induced climbing in mice administered subcutaneously. Particulars: sc. In kind it is functional.
On to `FC(F)(F)c1nc2c(OCCNCc3ccccc3)cccc2[nH]1`, for which the ED50 amounted to 0.09 mg/kg.

A further assay has as its target D(2) dopamine receptor (Rattus norvegicus) (UniProt P61169). Put plainly: Relative binding affinity for low and hugh affinity type dopamine D2 receptors in rat striatal membranes. Particulars: Striatum, Membrane. In kind it is cell membranes.
For the molecule `Sc1nc2c(OCCNCc3ccccc3)cc(Cl)cc2[nH]1`, the Ratio was found to be 21.

`c1ccc(CNCCOc2cccc3[nH]cnc23)cc1`: the Ratio is 13.

On to `FC(F)(F)c1nc2c(OCCNCc3ccccc3)cc(Cl)cc2[nH]1`, for which the Ratio came out at 16.

As for `Sc1nc2c(OCCNCc3ccccc3)cccc2[nH]1`, the Ratio stood at 14.

Turning to `c1ccc(CNCCOc2cccc3[nH]ncc23)cc1`, the Ratio amounted to 33.

`FC(F)(F)c1nc2c(OCCNCc3ccccc3)cccc2[nH]1`: the Ratio was 10.

As to `c1ccc(CNCCOc2cccc3[nH]ccc23)cc1`, the Ratio was found to be 4.

Regarding `O=C1Cc2c(cccc2OCCNCc2ccccc2)N1`, the Ratio was 54.

For `Oc1nc2c(OCCNCc3ccccc3)cc(Cl)cc2[nH]1`, the Ratio came to 11.

Take `Oc1cccc(OCCNCc2ccccc2)c1`: the Ratio stood at 28.

For the molecule `Cc1nc2c(OCCNCc3ccccc3)cccc2[nH]1`, the Ratio was found to be 6.

Another assay deals with T2, D(4) dopamine receptor (Homo sapiens, UniProt P21917).
T2 sequence (P21917 whole entry): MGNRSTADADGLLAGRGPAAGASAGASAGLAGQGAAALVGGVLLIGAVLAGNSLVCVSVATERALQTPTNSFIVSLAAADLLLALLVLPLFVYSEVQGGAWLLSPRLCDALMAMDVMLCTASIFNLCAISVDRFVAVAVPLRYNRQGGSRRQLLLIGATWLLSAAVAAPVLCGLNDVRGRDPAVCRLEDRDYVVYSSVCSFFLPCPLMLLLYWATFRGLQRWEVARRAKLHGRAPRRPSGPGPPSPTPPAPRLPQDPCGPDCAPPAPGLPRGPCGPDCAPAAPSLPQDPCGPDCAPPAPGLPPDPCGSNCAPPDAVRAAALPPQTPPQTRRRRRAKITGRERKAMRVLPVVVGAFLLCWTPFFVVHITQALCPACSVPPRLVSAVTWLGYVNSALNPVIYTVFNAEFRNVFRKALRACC
Put plainly: Inhibition of [3H]spiperone binding to human Dopamine receptor D4.4 expressed in CHO cell membranes.
Settings: not given
`Sc1nc2c(OCCNCc3ccccc3)cc(Cl)cc2[nH]1` had a pKi of 7.95.

The molecule `O=c1[nH]c2cc(Cl)cc(OCCNCc3ccccc3)c2[nH]1` had a pKi of 7.80.

Consider `FC(F)(F)c1nc2c(OCCNCc3ccccc3)cc(Cl)cc2[nH]1`, for which the pKi was 8.15.

In turn, `c1ccc(CNCCOc2cccc3nc[nH]c23)cc1` gave a negative-log Ki (pKi) of 7.29.

`c1ccc(CNCCOc2cccc3[nH]ncc23)cc1` gave a pKi of 6.50.

Take `FC(F)(F)c1nc2c(OCCNCc3ccccc3)cccc2[nH]1`: the negative-log Ki (pKi) is 8.51.

Turning to `c1ccc(CNCCOc2cccc3[nH]ccc23)cc1`, the pKi is 6.64.

`O=c1[nH]c2cccc(OCCNCc3ccccc3)c2[nH]1`: the pKi is 8.20. Compared with the last molecule, the pKi is 1.56 log units higher.

As for `O=C1Cc2c(cccc2OCCNCc2ccccc2)N1`, the pKi is 8.00.

Take `S=c1[nH]c2cccc(OCCNCc3ccccc3)c2[nH]1`: the pKi was 8.42. This pKi lies 0.42 log units higher than the previous one.

Regarding `Cc1nc2c(OCCNCc3ccccc3)cccc2[nH]1`, the pKi is 7.21.

In a further assay the test system is Mus musculus. The experiment in a line: Inhibitory activity against apomorphine-induced climbing in mice administered subcutaneously at 3 mg/kg; NS is not significant.
Settings: not given
In kind it is functional, organism-based. Further details: dose 3 mg/kg.
For `FC(F)(F)c1nc2c(OCCNCc3ccccc3)cc(Cl)cc2[nH]1`, the ED50 result was “inactive”.

In a further assay the target is T1, D(2) dopamine receptor. Put plainly: Inhibition of [3H]quinpirole binding to rat striatal membrane Dopamine receptor D2 without GTP and sodium.
Settings: not given
On to `Sc1nc2c(OCCNCc3ccccc3)cc(Cl)cc2[nH]1`, for which the pKi was 9.68.

On to `O=c1[nH]c2cc(Cl)cc(OCCNCc3ccccc3)c2[nH]1`, for which the pKi is 9.60. This pKi and that of the molecule before are within 0.2 log units of each other.

`FC(F)(F)c1nc2c(OCCNCc3ccccc3)cc(Cl)cc2[nH]1` gave a pKi of 9.15.

`c1ccc(CNCCOc2cccc3nc[nH]c23)cc1` showed a pKi of 8.01.

The molecule `c1ccc(CNCCOc2cccc3[nH]ncc23)cc1` gave a pKi of 8.96.

In turn, `FC(F)(F)c1nc2c(OCCNCc3ccccc3)cccc2[nH]1` showed a pKi of 9.74.

Turning to `O=c1[nH]c2cccc(OCCNCc3ccccc3)c2[nH]1`, the pKi was 9.74.

Take `S=c1[nH]c2cccc(OCCNCc3ccccc3)c2[nH]1`: the pKi is 9.74.

In turn, `Cc1nc2c(OCCNCc3ccccc3)cccc2[nH]1` gave a pKi of 8.36.

A further assay has as its target D(3) dopamine receptor (Homo sapiens, UniProt P35462). The experiment in a line: Inhibition of [3H]spiperone binding to human Dopamine receptor D3 in CHO cell membranes.
Settings: not given
For `Sc1nc2c(OCCNCc3ccccc3)cc(Cl)cc2[nH]1`, the pKi was 7.91.

On to `O=c1[nH]c2cc(Cl)cc(OCCNCc3ccccc3)c2[nH]1`, for which the pKi is 8.13. Against the preceding molecule, the pKi is 0.22 log units higher.

In turn, `FC(F)(F)c1nc2c(OCCNCc3ccccc3)cc(Cl)cc2[nH]1` had a pKi of 7.38.

Take `c1ccc(CNCCOc2cccc3nc[nH]c23)cc1`: the pKi is 7.17.

Take `c1ccc(CNCCOc2cccc3[nH]ncc23)cc1`: the pKi is 8.06.

For `FC(F)(F)c1nc2c(OCCNCc3ccccc3)cccc2[nH]1`, the pKi was 8.94.

`c1ccc(CNCCOc2cccc3[nH]ccc23)cc1` gave a pKi of 7.71.

Molecule `O=C1Cc2c(cccc2OCCNCc2ccccc2)N1` gave a pKi of 8.55.

Regarding `S=c1[nH]c2cccc(OCCNCc3ccccc3)c2[nH]1`, the pKi is 8.70.

Take `Cc1nc2c(OCCNCc3ccccc3)cccc2[nH]1`: the pKi is 7.02.
